The assay can be described thus: Inhibition of SARS-CoV-2 3CL protease Q189A mutant by FRET assay. Also on record: species or system Severe acute respiratory syndrome coronavirus 2.

The values that follow come from ChEMBL document CHEMBL5537111, “Structure and function of SARS-CoV and SARS-CoV-2 main proteases and their inhibition: A comprehensive review” (Eur J Med Chem, 2023).

In turn, `CC1(C)CCC(CN2CCN(c3ccc(C(=O)NS(=O)(=O)c4ccc(NCC5CCOCC5)c([N+](=O)[O-])c4)c(Oc4cnc5[nH]ccc5c4)c3)CC2)=C(c2ccc(Cl)cc2)C1` [VENETOCLAX] yielded an IC50 of 3.18 µM.

The IC50 is the concentration at which inhibition is half-maximal. A lower IC50 goes with higher potency.
